Laboratory results reported in article PMC9860980, “Pharmacokinetics and Pharmacodynamics (PK/PD) of Corallopyronin A against Methicillin-Resistant Staphylococcus aureus” (Pharmaceutics, 2022).

How the values were obtained:
[1] = tested on: S. aureus strain ATCC 33591 (MRSA-strain); conditions: 5 mg/kg IP TID; 24 h post infection
Experimental: Organ samples were thawed and homogenized using a Polytron tissue homogenizer after addition of 3 mL isotonic sodium chloride solution. First, a calibration curve was prepared by spiking different concentrations of CorA into the respective matrix from CD-1 mice. Caffeine was used as an internal standard. In addition, quality control samples (QCs) were prepared for CorA for every matrix. For PD samples, calibration curve and QCs were prepared for levofloxacin using the same protocol. The following extraction procedure was used: 50 µL of a sample (calibration sample, QCs, PK or PD sample) was extracted with 20 µL of acetic acid in water (10/90 (v/v)) and 30 µL acetonitrile for 5 min at 800 rpm on an Eppendorf MixMate® vortex mixer. Then, samples were spun down for 20 min at 4 °C and 4000 rpm and supernatants were transferred to new Greiner 96-well V-bottom plates. Samples were analyzed using an Agilent 1290 Infinity II HPLC system (Waldbronn, Germany) coupled to an AB Sciex QTrap6500plus mass spectrometer (Darmstadt, Germany). LC conditions were as follows: column: Agilent Zorbax Exlipse Plus C18, 50 × 2.1 mm, 1.8 µm; temperature: 30 °C; injection volume: 5 µL per sample; flow rate: 800 µL/min. Samples were run under buffered conditions: A: 95% water + 5% acetonitrile + 5 mM ammonium acetate + 40 µL/L acetic acid; B: 95% acetonitrile + 5% water + 5 mM ammonium acetate + 40 µL/L acetic acid. The gradient was as follows: 99% A at 0 min, 99% A until 0.1 min, 99–0% A from 0.1 min to 4.0 min, 0% A until 4.5 min. Mass transitions for controls and compounds are depicted in Table S1. Peaks of PK samples were quantified using the calibration curve. The accuracy of the calibration curve was determined using QCs independently prepared on different days. PK parameters were determined using a non-compartmental analysis with PKSolver.
Inocula were prepared as described previously with the modification that isotonic sodium chloride solution was used instead of PBS [25]. For the neutropenic thigh and the neutropenic lung infection model the S. aureus strain ATCC 33591 (MRSA-strain) was used. For the neutropenic lung infection model an inoculum of 2 × 10^9 cfu/mL was used. For the neutropenic thigh infection model an inoculum of 7 × 10^5 cfu/mL was used.
The model was conducted as described previously. In brief, the following groups were used: (1) inoculum control group with terminal endpoint at 2 h post infection to determine baseline inoculum in vivo; (2) vehicle-treated group receiving 20 mg/kg SC tramadol and vehicle (PEG400/PBS (80:20 (v/v)); (3) levofloxacin group 5 mg/kg IP three times a day (TID) (t = 2, 6 and 10 h post infection); (4) CorA 60 mg/kg IP TID (t = 2, 6 and 10 h post infection) and (5) CorA 100 mg/kg IP BID (t = 2 and 6 h post infection). The endpoint for groups no. 2–5 was 24 h post infection. A solution of […].

[2] = tested on: S. aureus strain ATCC 33591 (MRSA-strain); experiment: Neutropenic lung infection model with MRSA; assay type: in vivo, Staphylococcus aureus; conditions: 100 mg/kg IP (t = 2 h post infection); 24 h post infection
Experimental: Female, 8-week-old CD-1 mice (Charles River, Sulzfeld, Germany) were used (n = 6 animals per group). Animals were rendered neutropenic by administration of 150 mg/kg and 100 mg/kg cyclophosphamide IP on days -4 and -1, respectively. On the day of infection (day 0), mice received 15 µL of the inoculum administered via an Aeroneb® nebulizer device (Kent Scientific, Torrington, CT, USA) under anesthesia (100 mg/kg ketamine and 10 mg/kg xylazine). Mice were treated with (I) vehicle IP (PEG400/PBS), (II) with levofloxacin at 100 mg/kg IP (t = 2 h post infection, positive control group), (III) CorA at 60 mg/kg IP TID (t = 2, 5 and 9 h post infection) or (IV) CorA at 60 mg/kg IP (t = 2 h post infection) and 100 mg/kg SC BID (t = 5 and 9 h post infection).
Twenty-four hours after infection, mice were euthanized, blood was removed from the heart and lungs were aseptically removed. Whole blood was collected into Eppendorf (Hamburg, Germany) tubes coated with 0.5 M EDTA, immediately spun down at 13,000 rpm for 10 min at 4 °C, the plasma transferred into a new Eppendorf tube and stored at −80 °C until analysis. Organs were homogenized in isotonic sodium chloride solution and plated onto blood agar plates in duplicates in serial dilutions and incubated at 37 °C for 24 h.

## C[C@H]1COc2c(N3CCN(C)CC3)c(F)cc3c(=O)c(C(=O)O)cn1c23 [Levofloxacin, reference compound]
[1]
  bacterial burden in thigh tissue: significant reduction
  reduction of bacterial burden in lung tissue compared to the vehicle-treated group: approximately 2 log10-units
[2]
  reduction in bacterial burden in lung tissue: more than 2 log10-units
